Experimental data reported in US20100035866A1, “NOVEL SUBSTITUTED-1, 1-DIOXO-BENZO[1,2,4]THIADIAZIN-3ONES, PREPARATION METHOD THEREOF, AND PHARMACEUTICAL COMPOSITION CONTAINING THE SAME” (KOREA RESEARCH INSTITUTE OF CHEMICAL TECHNOLOGY, priority 2006, published 2010).

Experiments:
hD3 receptor = biological target: T1, hD3 receptor (Homo sapiens, UniProt P35462); assay: Dopamine receptor family binding: D3 ([3H]spiperone); conditions: [3H]spiperone 1 nM; read-out: Binding affinity, IC50 (nM), D3
T1 construct: purchased BioSignal Packard Inc., Montreal, Canada
T1 sequence (P35462 whole entry): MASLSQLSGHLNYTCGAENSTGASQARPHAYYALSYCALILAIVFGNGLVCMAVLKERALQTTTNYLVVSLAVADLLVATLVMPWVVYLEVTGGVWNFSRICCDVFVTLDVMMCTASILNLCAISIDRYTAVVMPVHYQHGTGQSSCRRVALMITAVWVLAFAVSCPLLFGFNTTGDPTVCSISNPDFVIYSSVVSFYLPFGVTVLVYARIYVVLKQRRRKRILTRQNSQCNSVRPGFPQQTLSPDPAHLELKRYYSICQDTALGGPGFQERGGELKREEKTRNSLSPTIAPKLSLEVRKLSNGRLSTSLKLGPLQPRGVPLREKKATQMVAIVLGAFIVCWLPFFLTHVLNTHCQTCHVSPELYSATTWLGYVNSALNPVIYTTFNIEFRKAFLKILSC

5-HT1a = biological target: T2, 5-HT1a (Homo sapiens, UniProt P08908); assay: Radioligand binding, 5-HT receptor family: 5-HT1a ([3H]8-OH-DPAT); conditions: CHO-K1 human recombinant receptor, [3H]8-OH-DPAT 0.5 nM; read-out: Binding affinity, IC50 (nM), 5-HT1a
T2 construct: purchased Euroscreen/BioSignal Packard Inc
T2 sequence (P08908 1-422): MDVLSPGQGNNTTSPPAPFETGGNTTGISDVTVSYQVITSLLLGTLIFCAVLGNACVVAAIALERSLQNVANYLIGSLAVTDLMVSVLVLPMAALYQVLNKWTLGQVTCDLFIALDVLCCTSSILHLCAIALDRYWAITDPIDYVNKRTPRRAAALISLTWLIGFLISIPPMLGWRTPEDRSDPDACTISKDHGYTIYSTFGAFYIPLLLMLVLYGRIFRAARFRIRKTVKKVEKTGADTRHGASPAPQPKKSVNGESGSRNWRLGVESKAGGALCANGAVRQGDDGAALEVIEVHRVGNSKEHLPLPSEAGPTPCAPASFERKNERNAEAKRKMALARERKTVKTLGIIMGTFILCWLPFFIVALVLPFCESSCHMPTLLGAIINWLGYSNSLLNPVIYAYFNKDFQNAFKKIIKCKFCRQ

5-HT7 = biological target: T3, 5-HT7 (Homo sapiens, UniProt P34969); assay: Radioligand binding, 5-HT receptor family: 5-HT7 ([3H]LSD); conditions: CHO-K1 human recombinant receptor, [3H]LSD 3 nM; read-out: Binding affinity, IC50 (nM), 5-HT7
T3 construct: purchased Euroscreen/BioSignal Packard Inc
T3 sequence (P34969 whole entry): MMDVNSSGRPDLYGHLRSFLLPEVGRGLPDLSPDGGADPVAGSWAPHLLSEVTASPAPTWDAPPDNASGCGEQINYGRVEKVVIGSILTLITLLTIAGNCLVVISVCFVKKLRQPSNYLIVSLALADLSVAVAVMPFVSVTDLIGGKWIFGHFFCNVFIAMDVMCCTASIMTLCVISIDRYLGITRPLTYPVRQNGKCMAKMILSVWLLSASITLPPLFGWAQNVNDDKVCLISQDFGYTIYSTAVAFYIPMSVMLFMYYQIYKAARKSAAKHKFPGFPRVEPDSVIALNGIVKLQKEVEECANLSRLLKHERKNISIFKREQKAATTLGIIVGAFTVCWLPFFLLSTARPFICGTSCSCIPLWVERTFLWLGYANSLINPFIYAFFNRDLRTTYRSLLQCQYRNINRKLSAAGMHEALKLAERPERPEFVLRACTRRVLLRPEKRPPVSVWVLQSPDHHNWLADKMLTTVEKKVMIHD
Procedure: Radioligand bindings were performed according to the test method provided by the supplier of receptor membrane (Euroscreen/BioSignal Packard Inc.). The detailed assay conditions and the results were shown in the following Table 3 and Table 4, respectively.

5-HT2a = biological target: T4, 5-HT2a (Homo sapiens, UniProt P28223); assay: Radioligand binding, 5-HT receptor family: 5-HT2a ([3H]Ketanserin); conditions: CHO-K1 human recombinant receptor, [3H]Ketanserin 1 nM; read-out: Binding affinity, IC50 (nM), 5-HT2a
T4 construct: purchased Euroscreen/BioSignal Packard Inc
T4 sequence (P28223 whole entry): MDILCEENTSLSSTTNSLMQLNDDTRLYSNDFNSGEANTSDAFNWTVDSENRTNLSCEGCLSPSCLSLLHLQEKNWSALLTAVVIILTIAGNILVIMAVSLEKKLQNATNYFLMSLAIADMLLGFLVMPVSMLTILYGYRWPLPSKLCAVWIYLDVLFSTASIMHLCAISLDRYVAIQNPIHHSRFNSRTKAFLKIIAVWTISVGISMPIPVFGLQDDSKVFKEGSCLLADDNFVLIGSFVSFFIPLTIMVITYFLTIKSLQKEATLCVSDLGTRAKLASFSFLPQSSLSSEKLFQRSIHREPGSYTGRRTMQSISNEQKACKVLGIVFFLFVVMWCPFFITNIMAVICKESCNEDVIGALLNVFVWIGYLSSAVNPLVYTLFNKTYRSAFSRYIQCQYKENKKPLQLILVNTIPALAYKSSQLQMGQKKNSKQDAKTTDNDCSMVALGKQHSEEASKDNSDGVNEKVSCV

hD2L receptor = biological target: T5, hD2L receptor (Homo sapiens, UniProt P14416); assay: Dopamine receptor family binding: D2 ([3H]spiperone); conditions: [3H]spiperone 1 nM; read-out: Binding affinity, IC50 (nM), D2
T5 construct: purchased BioSignal Packard Inc., Montreal, Canada
T5 sequence (P14416 whole entry): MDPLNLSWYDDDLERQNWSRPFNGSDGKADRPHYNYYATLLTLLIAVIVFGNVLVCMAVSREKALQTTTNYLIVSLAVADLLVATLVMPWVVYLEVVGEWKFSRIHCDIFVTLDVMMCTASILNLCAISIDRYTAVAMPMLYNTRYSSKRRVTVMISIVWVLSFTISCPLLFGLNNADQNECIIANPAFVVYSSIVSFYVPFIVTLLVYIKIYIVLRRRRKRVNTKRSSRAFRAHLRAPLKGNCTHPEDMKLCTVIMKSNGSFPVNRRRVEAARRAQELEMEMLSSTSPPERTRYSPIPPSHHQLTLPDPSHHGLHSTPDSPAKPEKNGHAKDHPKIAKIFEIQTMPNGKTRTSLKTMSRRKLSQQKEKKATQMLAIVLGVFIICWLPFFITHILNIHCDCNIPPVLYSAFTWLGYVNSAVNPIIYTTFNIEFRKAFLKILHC
Procedure: (§1) 2-2: Binding Assays of Dopamine Receptor Family
(§2) The radioligands used were [^3H]spiperone (for hD2L and hD3 receptors, 1 nM) and [^3H] YM-09151-2 (for hD4.2 receptor, 0.06 nM). Radioligand bindings were performed by the protocols provided by the supplier of receptor membranes (BioSignal Packard Inc., Montreal, Canada). Briefly, the buffer used in D2 or D3 receptor binding assay was 50 mM Tris-HCl (pH 7.4), 10 mM MgCl2, 1 mM EDTA, or 50 mM Tris-HCl (pH 7.4), 5 mM MgCl2 5 mM EDTA, 5 mM KCl, 1.5 mM CaCl2, 120 mM NaCl, respectively. In [^3H] YM-09151-2 receptor binding assays, the buffer containing 50 mM Tris-HCl (pH 7.4), 5 mM MgCl2, 5 mM EDTA, 5 mM KCl and 1.5 mM CaCl2 was used. […] Competition binding studies were carried out with 7-8 concentrations of the test compound run in duplicate tubes, and isotherms from three assays were calculated by computerized nonlinear regression analysis (GraphPad Prism Program, San Diego, […]) to yield median inhibitory concentration (IC50) values.

[1] = biological target: Human serotonin 5-HT6 receptor (Homo sapiens, UniProt P50406); assay: [3H]LSD binding assay on cloned 5-HT6 receptor; conditions: IC50 (nM)
Sequence of Human serotonin 5-HT6 receptor (P50406 whole entry): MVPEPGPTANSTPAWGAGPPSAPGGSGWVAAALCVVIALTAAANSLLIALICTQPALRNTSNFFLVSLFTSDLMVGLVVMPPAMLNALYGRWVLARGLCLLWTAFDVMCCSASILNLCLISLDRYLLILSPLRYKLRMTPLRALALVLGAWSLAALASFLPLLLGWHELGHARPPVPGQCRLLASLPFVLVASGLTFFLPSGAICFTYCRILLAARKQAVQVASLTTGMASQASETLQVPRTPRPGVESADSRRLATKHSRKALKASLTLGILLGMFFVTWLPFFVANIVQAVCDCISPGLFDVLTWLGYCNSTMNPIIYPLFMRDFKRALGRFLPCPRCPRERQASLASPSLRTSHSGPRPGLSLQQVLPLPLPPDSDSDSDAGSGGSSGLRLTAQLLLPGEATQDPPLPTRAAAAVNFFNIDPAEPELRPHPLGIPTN

hD4.2 receptor = biological target: T6, hD4.2 receptor (Homo sapiens, UniProt P21917, DEL265-296); assay: Dopamine receptor family binding: D4 ([3H]YM-09151-2); conditions: [3H]YM-09151-2 0.06 nM; read-out: Binding affinity, IC50 (nM), D4
T6 construct: purchased BioSignal Packard Inc., Montreal, Canada
T6 sequence (P21917 with tags, fused parts or gaps DEL265-296): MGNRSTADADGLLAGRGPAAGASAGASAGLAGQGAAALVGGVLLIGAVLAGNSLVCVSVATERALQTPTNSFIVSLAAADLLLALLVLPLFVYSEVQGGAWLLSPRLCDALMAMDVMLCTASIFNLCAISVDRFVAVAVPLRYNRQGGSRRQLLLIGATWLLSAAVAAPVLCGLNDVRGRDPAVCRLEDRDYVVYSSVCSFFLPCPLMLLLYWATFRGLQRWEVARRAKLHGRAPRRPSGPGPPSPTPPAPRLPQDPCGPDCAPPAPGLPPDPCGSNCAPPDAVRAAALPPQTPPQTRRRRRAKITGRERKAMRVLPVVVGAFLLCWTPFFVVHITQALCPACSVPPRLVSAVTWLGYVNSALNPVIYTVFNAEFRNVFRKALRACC
Procedure: as §1, §2

D1 = D1 (Homo sapiens, UniProt P21728); assay: Dopamine receptor family binding: D1; conditions: read-out: Binding affinity, IC50 (nM), D1
Sequence of D1 (P21728 whole entry): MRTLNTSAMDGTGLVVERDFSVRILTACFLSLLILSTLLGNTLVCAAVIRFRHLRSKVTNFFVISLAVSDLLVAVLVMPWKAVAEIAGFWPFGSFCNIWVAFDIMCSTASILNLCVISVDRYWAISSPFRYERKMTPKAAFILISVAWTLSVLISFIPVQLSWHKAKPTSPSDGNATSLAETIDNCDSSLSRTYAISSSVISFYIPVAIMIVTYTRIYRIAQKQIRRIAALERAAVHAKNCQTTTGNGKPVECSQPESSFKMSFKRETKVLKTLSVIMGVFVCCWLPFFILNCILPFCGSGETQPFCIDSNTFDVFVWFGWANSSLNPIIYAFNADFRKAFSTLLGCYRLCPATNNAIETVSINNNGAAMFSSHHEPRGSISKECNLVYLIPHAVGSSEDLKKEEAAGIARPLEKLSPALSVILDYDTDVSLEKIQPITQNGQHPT

5-HT2c = biological target: T7, 5-HT2c (Homo sapiens, UniProt P28335); assay: Radioligand binding, 5-HT receptor family: 5-HT2c ([3H]Mesulergine); conditions: CHO-K1 human recombinant receptor, [3H]Mesulergine 1 nM; read-out: Binding affinity, IC50 (nM), 5-HT2c
T7 construct: purchased Euroscreen/BioSignal Packard Inc
T7 sequence (P28335 33-458): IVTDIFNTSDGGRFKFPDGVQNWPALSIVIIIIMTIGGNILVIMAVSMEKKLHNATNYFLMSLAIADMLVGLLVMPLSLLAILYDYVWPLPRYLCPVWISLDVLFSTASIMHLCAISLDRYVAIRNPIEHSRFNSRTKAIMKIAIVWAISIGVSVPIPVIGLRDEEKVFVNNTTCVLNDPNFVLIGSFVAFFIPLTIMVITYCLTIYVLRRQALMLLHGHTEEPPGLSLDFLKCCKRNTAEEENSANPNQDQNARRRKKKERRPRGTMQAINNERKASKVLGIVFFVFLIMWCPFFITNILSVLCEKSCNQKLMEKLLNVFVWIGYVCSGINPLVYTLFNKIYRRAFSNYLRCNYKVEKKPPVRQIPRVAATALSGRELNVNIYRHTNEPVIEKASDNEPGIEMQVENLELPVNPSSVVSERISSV

[2] = Binding affinity, 5-HT6, Table 4
[3] = binding affinity to the 5-HT6 receptor, Table 2, 1.87 nM [3H]LSD, cloned human receptor membranes from Sf21 cells, 37° C. 60 min

Compound	IC50 (hD3 receptor) [nM]	IC50 (5-HT1a) [nM]	IC50 (5-HT7) [nM]	IC50 (5-HT2a) [nM]	IC50 (hD2L receptor) [nM]	IC50 [1, 2] [nM]	IC50 [1, 3] [nM]	IC50 (hD4.2 receptor) [nM]	IC50 (D1) [nM]	IC50 (5-HT2c) [nM]	melting point [°C]
C[C@H](c1ccccc1)N1C(=O)N(Cc2ccccc2)c2cc(Cl)cc(N3CCN(C)CC3)c2S1(=O)=O [Example 25, 4-Benzyl-6-chloro-8-(4-methyl-piperazin-1-yl)-1,1-dioxo-2-[(R)-1-phenyl-ethyl]-1,4-dihydro-2H-1λ^6-benzo[1,2,4]thiadiazin-3-one]	265	> 10000	8560	350	1920	1.1	1.1	> 10000	963	691	–
CCN1C(=O)N(Cc2ccccc2)c2cc(Cl)cc(N3CCN(C)CC3)c2S1(=O)=O [Example 33, 4-Benzyl-6-chloro-2-ethyl-8-(4-methyl-piperazin-1-yl)-1,1-dioxo-1,4-dihydro-2H-1λ^6-benzo[1,2,4]thiadiazin-3-one]	3170	2620	> 10000	119	> 10000	0.3	0.3	> 10000	–	1240	167 to 169
CCCN1C(=O)N(Cc2ccccc2)c2cc(Cl)cc(N3CCN(C)CC3)c2S1(=O)=O [Example 34, 4-Benzyl-6-chloro-8-(4-methyl-piperazin-1-yl)-2-propyl-1,1-dioxo-1,4-dihydro-2H-1λ^6-benzo[1,2,4]thiadiazin-3-one]	1860	2390	> 10000	436	> 10000	0.4	0.4	> 10000	–	203	91 to 93
CCCCCCCCN1C(=O)N(Cc2ccccc2)c2cc(Cl)cc(N3CCN(C)CC3)c2S1(=O)=O [Example 39, 4-Benzyl-6-chloro-8-(4-methyl-piperazin-1-yl)-2-octyl-1,1-dioxo-1,4-dihydro-2H-1λ^6-benzo[1,2,4]thiadiazin-3-one]	130	894	3170	1320	> 10000	1.8	1.8	> 10000	–	1050	88 to 91
CN1CCN(c2cc(Cl)cc3c2S(=O)(=O)N(Cc2cccc4ccccc24)C(=O)N3Cc2ccccc2)CC1 [Example 41, 4-Benzyl-6-chloro-8-(4-methyl-piperazin-1-yl)-2-naphthalen-1-ylmethyl-1,1-dioxo-1,4-dihydro-2H-1λ^6-benzo[1,2,4]thiadiazin-3-one]	420	> 10000	> 10000	365	> 10000	0.8	0.8	> 10000	–	257	114 to 115
